From US7789958B2, “Non-toxic corrosion-protection pigments based on manganese” (University of Dayton, priority 2003, dated 2010)
Values joined by “and” are separate entries in the source; they are usually repeats but may differ in a detail not shown here. Equal values may be shown once.

Key:
[1] = cited from earlier work
[2] = ASTM B-117 static salt fog test of PVB wash primers, rated by ASTM D-1654; conditions: PVB wash primer; for B-117 Proc. A: ASTM D-1654 rating Procedure A; for B-117 Proc. B: ASTM D-1654 rating Procedure B
Method: (§1) The corrosion inhibiting performance of MnIII and MnIV pigments was evaluated by incorporating them into primer paint formulations. […] The wash primer is composed of a resin, an acid, a corrosion inhibiting pigment, powdered talc, and carbon lampblack. The acid content of this wash primer provides a rigorous initial test of the stability and performance of the pigments. Other, more benign, polymer-based binder and resin systems might not separate the compounds based on their performance as effectively or as rapidly. […] PVB was used exclusively throughout testing to avoid preparation and compositional complications during analysis of pigment performance. However, the invention is not limited to the use of PVB. […] A small amount (0.2 g) of powdered talc (magnesium silicate) “filler” was added. Lampblack was not added to these samples. These components were mixed thoroughly by hand and 3.8 g of phosphoric acid diluent added with further mixing. This rough processing allowed direct comparisons of pigment performance to be made without complications due to powder treatments, modifications, and additives. […] This is not the conventional paint application procedure for aluminum alloys. Under normal service conditions, aluminum alloys are first subjected to a hexavalent chromium-containing conversion coating prior to primer application. However, the conversion coating was omitted so that the performance of the pigment alone could be evaluated and not the synergistic effects of hexavalent chromium (in the conversion coating) or even of barrier films (in the phosphate or anodized coatings). […] This accelerated corrosion test exposes samples to a constant salt-water fog and is a de facto test of solubility for corrosion inhibitors. […] This accelerated corrosion test exposes samples to a cycle of fog of dilute salt and ammonium sulfate at room temperature followed by forced-air drying at an elevated temperature. This is a more realistic test of the ability of a compound to inhibit corrosion. […] After the paint dried for 24 hours, each plate was scribed with an X and the plate edges were sealed with PVC tape to eliminate corrosion edge effects. Two visual observations are associated with this rating test. Procedure A involves a rating of the failure at the scribe-the representative […] of corrosion away from the scribe. […] In this way, not only the bulk corrosion-inhibiting action of a pigment through the binder can be rated, but also its “throwing power”.

[3] = ASTM G-85.5 cyclic Prohesion test of PVB wash primers, rated by ASTM D-1654; conditions: PVB wash primer; for G-85 Proc. A: ASTM D-1654 rating Procedure A; for G-85 Proc. B: ASTM D-1654 rating Procedure B
Method: as §1

[4] = 7.44 × 10^−4 M (10% of Cr), 117 hours, 2024-T3 (alloy taken from column order of Table 7)
[5] = 7.44 × 10^−4 M (10% of Cr), 117 hours, 7075-T6 (alloy taken from column order of Table 7)
[6] = 7.44 × 10^−4 M (10% of Cr), 139 hours, 2024-T3 (alloy taken from column order of Table 7)
[7] = 7.44 × 10^−4 M (10% of Cr), 139 hours, 7075-T6 (alloy taken from column order of Table 7)
[8] = 1.49 × 10^−3 M (20% of Cr), 144 hours, 2024-T3 (alloy taken from column order of Table 7)
[9] = 1.49 × 10^−3 M (20% of Cr), 144 hours, 7075-T6 (alloy taken from column order of Table 7)

| Molecule | B-117 Proc. A [2, 4] | B-117 Proc. A [2, 5] | G-85 Proc. A [3, 4] | G-85 Proc. A [3, 5] | G-85 Proc. B [3, 4] | G-85 Proc. B [3, 5] | B-117 Proc. A [2, 6] | B-117 Proc. A [2, 7] | B-117 Proc. B [2, 6] | B-117 Proc. B [2, 7] | G-85 Proc. A [3, 6] | G-85 Proc. A [3, 7] | G-85 Proc. B [3, 6] | G-85 Proc. B [3, 7] | other results |
| --- | --- | --- | --- | --- | --- | --- | --- | --- | --- | --- | --- | --- | --- | --- | --- |
| [O]=[Cr](=[O])([O-])[O-].[O]=[Pb].[Pb+2] [basic lead chromate] |  |  |  |  |  |  |  |  |  |  |  |  |  |  | solubility in water relative to lead chromate [1]: slightly lower solubility in water |
| [O]1[Pb][O][Pb]12[O][Pb][O]2 [red lead] |  |  |  |  |  |  |  |  |  |  |  |  |  |  | PbVI solubility ([1]; Glasstone, J. Chem. Soc. 121: 1456-69, 1922): 10^−17 moles/liter Pb^+4 |
| barium 9-molybdomanganate | 4 | 3 | 7 | 8 and 7 | 6 | 7 and 6 |  |  |  |  |  |  |  |  |  |
| barium 13-vanadatomanganate |  |  |  |  |  |  | 7 | 7 | 8 and 7 | 6 | 6 and 7 | 6 | 6 | 5 |  |
| barium hexaiodatomanganate |  |  |  |  |  |  |  |  |  |  |  |  |  |  | B-117 Proc. A [2, 8]: 5; B-117 Proc. A [2, 9]: 5; B-117 Proc. B [2, 8]: 3; B-117 Proc. B [2, 9]: 3; G-85 Proc. A [3, 8]: 7 and 8; G-85 Proc. A [3, 9]: 8 and 7; G-85 Proc. B [3, 8]: 7 and 8; G-85 Proc. B [3, 9]: 8 and 7 |
| calcium 9-molybdomanganate | 6 | 5 | 6 | 7 | 5 | 6 |  |  |  |  |  |  |  |  | B-117 Proc. B [2, 4]: 3; B-117 Proc. B [2, 5]: 4 |
| calcium 13-vanadatomanganate |  |  |  |  |  |  | 8 | 7 | 7 | 6 | 7 | 7 | 6 | 6 |  |
| magnesium 13-vanadatomanganate |  |  |  |  |  |  | 9 | 7 | 7 | 8 | 7 | 6 and 7 | 6 | 5 and 6 |  |
| strontium 9-molybdomanganate | 5 | 4 and 5 | 6 | 6 | 5 | 5 |  |  |  |  |  |  |  |  |  |
| strontium 13-vanadatomanganate |  |  |  |  |  |  | 7 | 7 | 6 | 6 | 6 | 6 | 5 and 6 | 5 and 6 |  |
| zinc 9-molybdomanganate | 5 | 5 | 7 | 7 and 8 | 7 and 6 | 7 |  |  |  |  |  |  |  |  | B-117 Proc. B [2, 4]: 3; B-117 Proc. B [2, 5]: 4 and 3 |
| zinc 13-vanadatomanganate |  |  |  |  |  |  | 8 | 7 | 9 | 8 | 7 | 7 and 6 | 6 and 5 | 6 and 5 |  |
